Data as given in patent US20150252049A1, “MGLU2/3 ANTAGONISTS FOR THE TREATMENT OF AUTISTIC DISORDERS” (Hoffmann-La Roche Inc., priority 2012, published 2015).

System: BTBR T+tf/J (BTBR) mice
Test: 3-Chambered Social Test (animal vs. object)
Format: in vivo, mouse
Conditions: male BTBR-T+/tfj mice, 3-10-30 mg/kg p.o. 3 hours before habituation; effect especially in the first 5 minutes at 10 mg/kg (FIG. 2/3)
Protocol: Deficits in social interactions and social approach, unusual patterns of ultrasonic vocalization, and high levels of repetitive self-grooming are included.^20
The 3-Chambered Social Test is used to assess autistic-like behaviors. Shortly after a period of habituation a mouse's sociability is determined by evaluating the amount of time the test mouse spends approaching a wire cage (holding cup) containing an unfamiliar mouse.
48 male mice BTBR-T+/tfj, 8-9 weeks old, were used in the experiments described herein in 4 groups n=12/group. Further, 6 male stimulus mice (unfamiliar BTBR T+tf/J mice) of similar age and weight were used.
Low light of 20 Lux was used. With the doorways into the two side chambers closed, the test mouse was placed in the middle chamber and allowed to explore the apparatus for 10 min. Thereafter, the doorways were opened and the test mouse was allowed to explore the entire test box for 10 min. The cages were empty. The sociability test was conducted immediately following the habituation phase.
While the test mouse was enclosed in the center compartment of the test box a stimulus mouse was enclosed in a wire cage (holding cup) in one side chamber. […] The amount of time spent and the number of entries into each chamber was measured, as was the time spent in a small perimeter around the cup holding the stimulus mouse. […]

## CCC(=O)NS(=O)(=O)c1cccc(-c2cccc(-c3cc(-c4ccc(C(F)(F)F)cc4)cc(C)n3)n2)c1 [IIb]
  social preference (duration in the chamber, duration sniffing): increased social preference
